The text below walks through data of patent publication US8343983B2, “Substituted pyrazolo-pyrimidine compounds” (ArQule, Inc., priority 2009, dated 2013).

Like-named read-outs stand apart in the source and are kept apart here.

This test has as its system cancer cells. Kind of test: MTS assay: inhibition of cell growth (formazan absorbance at 492 nm after 72 hours with test compound). Type of test: cell-based. Particulars: inhibition class. In a few lines: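 DMEM with 1% FBS; cells seeded at 3000/well and grown 18 h at 37 °C, then exposed to compound for 72 h and to MTS/PMS for 4 h. IC50 is the concentration giving a 50% absorbance drop; grades are % inhibition bands.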
For orientation: Formazan colour is commonly taken as a measure of viable cells.

Setting [1] is: Homo sapiens, DLD-1 cells, read-out: DLD-1, MTS 72 hours at 10 uM.
Where [2] appears, read: Homo sapiens, KATO III cells, read-out: KATO III, MTS 72 hours at 10 uM.
Where [3] appears, read: Homo sapiens, MDA-MB-231 cells, read-out: MDA-MB-231, MTS 72 hours at 10 uM.
The mark [4] stands for this setting: Homo sapiens, NCI-H1299 cells, read-out: NCI-H1299, MTS 72 hours at 10 uM.
Where [5] appears, read: Homo sapiens, PC-3 cells, read-out: PC-3, MTS 72 hours at 10 uM.
The mark [6] stands for this setting: PACA-2 cells, read-out: PACA-2, MTS 72 hours at 10 uM.

Consider `COc1cc(CNc2nc3c4c(n[nH]c4n2)CCN3Cc2ccccc2)cc(OC)c1` [Compound 82, 6-benzyl-N-(3,5-dimethoxybenzyl)-2,6,7,8-tetrahydro-1,2,3,5,6-pentaazaacenaphthylen-4-amine], for which the inhibition at 10 µM is < 50% under setting [1]; < 50% under setting [2]; < 50% under setting [3]; < 50% under setting [4]; < 50% under setting [5]; < 50% under setting [6].

As to `Fc1cccc(CNc2nc3c4c(n[nH]c4n2)CCN3)c1` [Compound 127, N-(3-fluorobenzyl)-2,6,7,8-tetrahydro-1,2,3,5,6-pentaazaacenaphthylen-4-amine], the inhibition at 10 µM reads like this: under setting [1], > 79%; under setting [2], > 79%; under setting [3], > 79%; under setting [4], 50 to 79%; under setting [5], > 79%; under setting [6], > 79%.

Turning to `c1cncc(CNc2nc3c4c(n[nH]c4n2)CCN3)c1` [Compound 121, N-(pyridin-3-ylmethyl)-2,6,7,8-tetrahydro-1,2,3,5,6-pentaazaacenaphthylen-4-amine], the inhibition at 10 µM was < 50% under setting [1]; < 50% under setting [2]; < 50% under setting [3]; < 50% under setting [4]; < 50% under setting [5]; < 50% under setting [6].

Regarding `Brc1cccc(CCNc2nc3c4c(n[nH]c4n2)CCN3Cc2ccccc2)c1` [Compound 28, 6-benzyl-N-[2-(3-bromophenyl)ethyl]-2,6,7,8-tetrahydro-1,2,3,5,6-pentaazaacenaphthylen-4-amine], the inhibition at 10 µM was < 50% under setting [1]; > 79% under setting [2]; > 79% under setting [3]; > 79% under setting [4]; > 79% under setting [5]; < 50% under setting [6].

In the case of `COc1ccc(CN2CCc3n[nH]c4nc(NCc5cccc(F)c5)nc2c34)cc1` [Compound 113, N-(3-fluorobenzyl)-6-(4-methoxybenzyl)-2,6,7,8-tetrahydro-1,2,3,5,6-pentaazaacenaphthylen-4-amine], the inhibition at 10 µM was > 79% under setting [1]; < 50% under setting [2]; 50 to 79% under setting [3]; < 50% under setting [4]; > 79% under setting [5]; > 79% under setting [6].

On to `COc1ccc(CN2CCc3n[nH]c4nc(NC5CCN(C)CC5)nc2c34)cc1` [Compound 111, 6-(4-methoxybenzyl)-N-(1-methylpiperidin-4-yl)-2,6,7,8-tetrahydro-1,2,3,5,6-pentaazaacenaphthylen-4-amine], for which the inhibition at 10 µM reads like this: under setting [1], < 50%; under setting [2], < 50%; under setting [3], < 50%; under setting [4], < 50%; under setting [5], < 50%; under setting [6], < 50%.

With `COC[C@H](C)Nc1nc2c3c(n[nH]c3n1)CCN2Cc1ccccc1` [Compound 18, 6-benzyl-N-[(1S)-2-methoxy-1-methylethyl]-2,6,7,8-tetrahydro-1,2,3,5,6-pentaazaacenaphthylen-4-amine], the inhibition at 10 µM under setting [1] was < 50%; the inhibition at 10 µM under setting [2] was < 50%; the inhibition at 10 µM under setting [3] was < 50%; the inhibition at 10 µM under setting [4] is < 50%; the inhibition at 10 µM under setting [5] is < 50%; the inhibition at 10 µM under setting [6] is < 50%.

As for `COc1ccc(CN2CCc3n[nH]c4nc(NCCN5CCOCC5)nc2c34)cc1` [Compound 105, 6-(4-methoxybenzyl)-N-(2-morpholin-4-ylethyl)-2,6,7,8-tetrahydro-1,2,3,5,6-pentaazaacenaphthylen-4-amine], the inhibition at 10 µM is > 79% under setting [1]; > 79% under setting [2]; > 79% under setting [3]; > 79% under setting [4]; > 79% under setting [5]; > 79% under setting [6].
